Experimental data: patent publication US11129845B2, “Compositions and methods for the delivery of nucleic acids” (CASE WESTERN RESERVE UNIVERSITY, priority 2014, dated 2021)

Legend:
[1] = Nanoparticle diameter and polydispersity by dynamic light scattering (Malvern Zetasizer); assay type: physicochemical; settings: for Nanoparticle diameter as measured by dynamic light scattering: siRNA-lipid complexes
Protocol: The cationic lipid carriers are dissolved in ethanol at a stock concentration of 2.5 mM, while all siRNA is reconstituted in nuclease-free water at a 0.25 μg/μL (18.8 μM) concentration. Nanoparticles are formulated by mixing the carriers with siRNA for a period of 30 min in RNase-free phosphate buffer saline (PBS) at pre-specified N/P ratios (N=number of protonable amines in lipid, P=number of phosphate groups in the siRNA). In preparing the lipoplexes, proper dilutions were made such that the volume ratio of ethanol:water was kept constant at 1:20. Minimizing the amount of ethanol is important because it is effective in dissolving lipids, thus inhibiting particle formation. The diameters (as determined by dynamic light scattering) and zeta potentials of all nanoparticles were analyzed using a Malvern Zetasizer instrument at pH=7.4. siRNA encapsulation efficiency was calculated using a RiboGreen fluorescence-based assay from Invitrogen, designed specifically for detection of free RNA at […] wavelengths of 480 and 520 nm, respectively. Nanoparticles were created with all carriers in the library so that final siRNA concentrations were 1.6 μg/mL. A linear standard curve was utilized to calculate the encapsulation efficiencies from signal intensities measured by a SpectraMax microplate reader (Molecular Devices).

[2] = test system: GFP reporter protein; assay: GFP reporter silencing in CHO-GFP cells (flow cytometry); assay type: cell-based, Chinese hamster; settings: N/P=4, 48 h post-transfection, 100 nM siRNA
Protocol: The RNAi induced silencing capabilities of each carrier was investigated in both a CHO-GFP non-cancerous cell line and an HT29-Luc (luciferase) human colon cancer cell line. Approximately 50,000 CHO-GFP cells were seeded into 6 well plates. When 25% confluency was achieved, the growth media were replaced with fresh serum free transfection media containing siRNA nanoparticles, at a dose of 100 nM siRNA. Negative controls included cells that were either treated with naked anti-GFP siRNA or with plain serum-free media. N/P ratios of 4, 6, 8, 10, 12, and 14 were tested for each carrier to determine the optimal nanoparticle formulation. […] After 4 h, the media were removed and replaced with fresh complete growth media, and cells were allowed to grow for another 24, 48, or 72 h post-transfection. At each of these time points, the CHO-GFP cells were rinsed twice with PBS, trypsinized, and fixed with 2% paraformaldehyde. […] Cell-Quest software was used to analyze the results and obtain mean fluorescence intensity (MFI) values.
(§1) The RNAi capabilities of each carrier were investigated by analyzing the silencing of a luciferase (Luc) reporter in HT29 cancer cells after anti-Luc siRNA therapy. […] Luciferase expression was determined using a Spectra Max luminometer upon the addition of a light-inducing substrate to the collected protein. […]

[3] = test system: luciferase reporter; assay: Luciferase reporter silencing in HT29-Luc cells; assay type: cell-based, human; settings: for Luciferase expression: 100 nM siRNA
Protocol: Gene silencing efficiency was investigated in the HT29-Luc cell line by analyzing the expression of a luciferase reporter after anti-Luc siRNA therapy. To perform this study, cancer cells were seeded in 12 well plates at a density of 20,000 cells per well. Transfections were conducted in fresh serum-free media with 100 nM of siRNA when the cells were 25% confluent. The cells continued to grow in normal growth media for an additional 48 and 72 h, at which point they were rinsed twice with PBS and lysed for protein collection. The lysis buffer was a component of a Promega Luciferase Assay kit designed for measuring luciferase expression in the cell lysate. Equally important, the lysis buffer was compatible with the BCA protein assay so that we were able to normalize the luciferase expression in our samples with total protein content. For this silencing study, all synthesized carriers were evaluated at N/P ratios of 8, 10, 12, 14, 16, 18, and 20 to determine the best transfection formulation. Relative luciferase expression was determined for each trial using a SpectraMax luminometer upon the addition of a light-inducing luciferin substrate to the collected protein.
The RNAi capabilities of each carrier were investigated by analyzing the silencing of a luciferase (Luc) reporter in HT29 cancer cells after anti-Luc siRNA therapy. To perform this study, we seeded HT29-Luc cells in 12 well plates at a density of 20,000 cells per well. When 25% confluency, the cells were incubated with fresh serum-free transfection media containing nanoparticles at a dose of 100 nM siRNA. After 4 hours, the media was replaced with fresh complete growth media, so that the cells could continue to grow for an additional 48-72 hours, at which point they were lysed for protein collection. The lysis buffer was compatible with the BCA protein assay so that we could normalize luciferase expression in our samples. Negative controls included cells that were treated with 1) particles encapsulating non-specific siRNA, 2) naked anti-Luc siRNA, or 3) plain serum-free media. Luciferase expression was determined using a Spectra Max luminometer upon the addition of a light-inducing substrate to the collected protein. A similar knockdown experiment was also conducted in non-cancerous CHO cells expressing a GFP reporter. Flow cytometry was utilized to assess the silencing efficiency of the ECO and ECL delivery systems in this cell line. Cytotoxicity of the carriers 48 hours post-transfection was also investigated in both cell lines using an MTT colorimetric assay. […] These RNAi silencing levels surpassed those obtained with a Lipofectamine RNAiMax commercial transfection agent.

[4] = test system: CHO-GFP cells; assay type: cell-based, Chinese hamster
Protocol: Cytotoxicity of the carriers was investigated using an MTT colorimetric assay measuring cellular metabolic activity (Invitrogen). The transfection procedure was identical to that presented for the reporter knockdown studies above, except for the fact that 96 well plates were utilized instead, and seeded with 10,000 cells per well. After transfection, the cells were allowed to grow for an additional 48 h. At that point, they were incubated with MTT for 4 h, followed by an additional 4 hour incubation with an SDS-HCl solution to dissolve any insoluble formazan crystals formed by the reduction of MTT by NAD(P)H-dependent enzymes in the cells. The absorbance of each sample was measured at 570 nm using a SpectraMax microplate reader. Cellular viability was calculated by averaging the signal intensities over three replicates and then normalizing the results relative to the negative control data.
as §1, with “therapy. To perform this study, we seeded HT29-Luc cells in 12 well plates at a density of 20,000 cells per well.” for “therapy.”

[5] = test system: HT29-Luc cells; assay: MTT cytotoxicity in HT29-Luc cells; assay type: cell-based, human

For `CCCCCCCC/C=C\CCCCCCCC(=O)N[C@@H](CS)C(=O)NCCNC(=O)CCN(CCN)CCC(=O)NCCNC(=O)[C@H](CS)NC(=O)CCCCCCC/C=C\CCCCCCCC` [ECO, (1-aminoethyl)iminobis[N-(oleicylcysteinyl-1-amino-ethyl)propionamide]], the “Polydispersity of siRNA-lipid complexes” value ([1]; N/P = 2) was 0.245, the “Polydispersity of siRNA-lipid complexes” value ([1]; N/P = 5) was 0.200 and the “Polydispersity of siRNA-lipid complexes” value ([1]; N/P = 8) was 0.157. For the same molecule, the “Polydispersity of siRNA-lipid complexes” value ([1]; N/P = 10) was 0.136, the “Polydispersity of siRNA-lipid complexes” value ([1]; N/P = 15) was 0.005 and the “Nanoparticle diameter as measured by dynamic light scattering” value (“Nanoparticle diameter as measured” below) ([1]; N/P = 2) was 468 ± 43 nm. For the same molecule, the “Nanoparticle diameter as measured” value ([1]; N/P = 5) was 448 ± 23 nm, the “Nanoparticle diameter as measured” value ([1]; N/P = 8) was 59 ± 11 nm and the “Nanoparticle diameter as measured” value ([1]; N/P = 10) was 78 ± 12 nm. For the same molecule, the “Nanoparticle diameter as measured” value ([1]; N/P = 15) was 42 ± 9 nm, the “relative GFP reporter expression” value [2] was 61.0±5.05% and the “luciferase knockdown (transfection efficiency)” value ([3]; HT29, N/P 18, 72 h post-transfection) was 77.5±3.3%. For the same molecule, the silencing efficiency ([3]; HT29-Luc, N/P ratio of 18, over 72 hours) was 80%, the Luciferase expression ([3]; HT29-Luc, N/P=12, 72 h) was 33.5±3.82% and the Luciferase expression ([3]; HT29-Luc, N/P=18 (Lipofectamine per manufacturer), 72 h) was 22.7±3.31%. The “cell viability (MTT)” value [4] was “greater than 85%”, the “cell viability (MTT)” value ([5]; HT29, N/P=18) was 87.3±2.72% and the “cell viability (MTT)” value ([5]; HT29, N/P=20) was 51.5±5.87%.
